# Data taken from patent US7750165B2, “Metaxalone polymorphs” (Fresenius Kabi Oncology Limited, priority 2005, dated 2010).
# Where “and” joins values, the source holds several entries; their conditions need not be identical. Equal values may be shown once. Read-outs that look alike come from different tables or passages of the source.
# Experiment: Bioavailability and pharmacokinetic study of crystalline Forms A and B of metaxalone, oral suspension, plasma by HPLC
# Type: in vivo, female wistar rat
# Design: AUCin / AUCt / AUCt Mean / AUCin Mean: unit not given here
# Description: A study was undertaken to compare the bioavailability and pharmacokinetic profile of the two crystalline Forms A and B of metaxalone in female wistar rat under fasting condition. A suspension of metaxalone form A and Form B having a concentration of 15.0 mg/ml was prepared using 0.1% Tween-80 in 0.25% carboxy methyl cellulose (CMC). The formulation was used for dosing as such without any further dilution.
# Twelve rats were taken, out of which six rats were administered form A crystals of Metaxalone and other six rats were adminstered form B crystals of Metaxalone, in different injection volumes based on body weight, resulting in dose of 150 mg/kg. A total thirteen (0.6 ml) blood samples were collected from each rat into prelabeled tubes containing EDTA solution, by retro-orbital bleeding under mild ether anesthesia. The blood samples were withdrawn at time points of 0 (prior to dosing), 15, 30 mins, 1, 1.5, 2.0, 4.0, 6.0, 8.0, 10.0, 12.0, 24 and 48 hrs post administration. The samples were centrifuged at 4000 rpm for 10 mins at room temperature. Seperated plasma samples were transferred into prelabeled tubes and stored upright in cyrobox. These cyroboxes were then transfered into a deep freezer maintained at −20° C. for the final storage until the completion of analysis.
# HPLC system of Shimadzu LC—2010CHT series equipped with shimadzu UV-VIS detector, analytical column YMC Pack ODS C-18, 5 μm, (150×4.6 mm) and a data acquisition system (LC solution software) were used for the quantitative determination of metaxalone in rat plasma.
# The results were plotted using the conventional AUC method to calculate pharmacokinetic ters (Cmax, Tmax and AUC (area under the curve, a measure of total bioavailability). The pharmacokinetic results for the crystalline form A and B are summarized in Table-V
# [1] = Mean of N=6 rats, female wistar rat, oral 150 mg/kg, 150 mg/kg
# [2] = female wistar rats, fasting, oral 150 mg/kg, plasma, Mean ± SD (second Table IV), listed as Metaxalone- Form B, 150 mg/kg
# [3] = female wistar rats, fasting, oral 150 mg/kg, plasma, Mean ± SD, 150 mg/kg
# [4] = female wistar rats, fasting, oral 150 mg/kg, plasma, Mean ± SD, listed as Metaxalone- Form B, 150 mg/kg
# [5] = female wistar rats, oral 150 mg/kg
# [6] = individual rats 1-6, female wistar rat, oral 150 mg/kg, 150 mg/kg
# [7] = individual rats 1-6, female wistar rat, oral 150 mg/kg, 150 mg/kg, in h
# [8] = individual rats 1-6, female wistar rat, oral 150 mg/kg, 150 mg/kg, in µg/mL
# [9] = Form A relative to Form B, per rat number 1-6, oral 150 mg/kg, 150 mg/kg
# [10] = female wistar rats, fasting, oral 150 mg/kg, plasma, Mean ± SD, listed as Metaxalone- Form A, 150 mg/kg
# [11] = female, Wistar, rat, plasma, po, 150 mg/kg, female wistar rats, fasting, oral 150 mg/kg, Mean ± SD
smiles,measurement,setting,value
"Cc1cc(C)cc(OCC2CNC(=O)O2)c1 (single isomer, unassigned) [Form B, 5-(3′,5′-dimethylphenoxy)methyl-2-oxazolidinone]",AUCt Mean,[1],333.329
same,Tmax Mean,"Mean of N=6 rats, female wistar rat, oral 150 mg/kg, 150 mg/kg, in h",2.083
same,Cmax Mean,"Mean of N=6 rats, female wistar rat, oral 150 mg/kg, 150 mg/kg, in µg/mL",40.735
same,AUCinf,[2],389.07 ± 200.6 µg·h/mL
same,AUClast,[2],333.32 ± 159.9 µg·h/mL
same,AUCinf,[3],389.07±200.6 hrμg/ml
same,AUClast,[3],333.32±159.9 hrμg/ml
same,Clobs,[3],7.8787 ± 3.578 mL/min/kg
same,Cmax,[3],40730 ± 2800 ng/mL
same,Half Life,[3],4.49 ± 1.7 h
same,MRTlast,[3],5.50 ± 1.8 h
same,Tmax,[3],2.08 ± 1.4 h
same,Clobs,[4],7.8787 ± 3.578 mL/min/kg
same,Lambda z,[4],0.172 ± 0.05 h⁻¹
same,Vzobs,[4],2.65418 ± 0.4222 L/kg
same,"bioavailability, based on the observed Cmax values",[5],bioavailable
same,MRTlast,"female wistar rats, oral 150 mg/kg, plasma, mean ± SD, unit not given, 150 mg/kg, in h",5.50±1.8
same,AUC,"female, Wistar, rat, plasma, po, 150 mg/kg, Mean of N=6 rats, female wistar rat, oral 150 mg/kg, read-out: AUCin Mean",389 µg·h/mL
same,Cmax,"female, Wistar, rat, plasma, po, 150 mg/kg, female wistar rats, oral 150 mg/kg, plasma, mean ± SD, no unit printed for this value, read-out: mean Cmax",40700 ± 2800 ng/mL
same,AUCin,[6],196.86 and 360.78 and 551.70 and 707.50 and 229.04 and 288.56
same,AUCt,[6],188.83 and 306.89 and 384.99 and 626.04 and 207.73 and 285.51
same,Tmax,[7],1.00 and 4.00 and 1.50
same,Cmax,[8],38.75 and 43.65 and 43.04 and 43.27 and 38.16 and 37.54
"Cc1cc(C)cc(OCC2CNC(=O)O2)c1 (single isomer, unassigned) [Form A, 5-(3′,5′-dimethylphenoxy)methyl-2-oxazolidinone]",AUCin A/B %,[9],328.5% and 110.5% and 69.0% and 37.7% and 291.3% and 120.9%
same,AUCt A/B %,[9],196.7% and 84.4% and 73.7% and 40.4% and 255.3% and 88.1%
same,Cmax A/B %,[9],111.2% and 77.4% and 89.4% and 90.9% and 103.7% and 85.0%
same,AUCin Mean,[1],451.461
same,Clobs,[3],6.164 ± 2.122 mL/min/kg
same,Clobs,"female wistar rats, fasting, oral 150 mg/kg, plasma, Mean ± SD, listed as Form-A, 150 mg/kg",6.164 ± 2.122 mL/min/kg
same,Clobs,[10],6.164 ± 2.122 mL/min/kg
same,Lambda z,[10],0.119 ± 0.07 h⁻¹
same,Vzobs,[10],3.46602 ± 0.9788 L/kg
same,"bioavailability, based on the observed Cmax values",[5],bioavailable
same,AUC(0-t),"female, Wistar, rat, plasma, po, 150 mg/kg, Mean of N=6 rats, female wistar rat, oral 150 mg/kg, read-out: AUCt Mean",325 µg·h/mL
same,Cmax,"female, Wistar, rat, plasma, po, 150 mg/kg, Mean of N=6 rats, female wistar rat, oral 150 mg/kg, read-out: Cmax Mean",37700 ng/mL
same,Tmax,"female, Wistar, rat, plasma, po, 150 mg/kg, Mean of N=6 rats, female wistar rat, oral 150 mg/kg, read-out: Tmax Mean",1.5 h
same,AUC(0-inf),[11],451 ± 166 µg·h/mL
same,MRT last,[11],5.49 ± 1.8 h
same,half-life,[11],7.25 ± 2.9 h
same,AUC(0-inf),"female, Wistar, rat, plasma, po, 150 mg/kg, female wistar rats, fasting, oral 150 mg/kg, Mean ± SD (second Table IV)",451 ± 166 µg·h/mL
same,AUC(0-t),"female, Wistar, rat, plasma, po, 150 mg/kg, female wistar rats, fasting, oral 150 mg/kg, plasma, Mean ± SD (second Table IV), read-out: AUClast",325 ± 110 µg·h/mL
same,AUC(0-t),"female, Wistar, rat, plasma, po, 150 mg/kg, female wistar rats, fasting, oral 150 mg/kg, plasma, Mean ± SD, read-out: AUClast",325 ± 110 µg·h/mL
same,Cmax,"female, Wistar, rat, plasma, po, 150 mg/kg, female wistar rats, fasting, oral 150 mg/kg, plasma, Mean ± SD, read-out: Cmax",37700 ± 4100 ng/mL
same,Tmax,"female, Wistar, rat, plasma, po, 150 mg/kg, female wistar rats, fasting, oral 150 mg/kg, plasma, Mean ± SD, read-out: Tmax",1.5 ± 0.3 h
same,MRT last,"female, Wistar, rat, plasma, po, 150 mg/kg, female wistar rats, oral 150 mg/kg, mean ± SD, unit inferred",5.49 ± 1.8 h
same,Cmax,"female, Wistar, rat, plasma, po, 150 mg/kg, individual rats 1-6, female wistar rat, oral 150 mg/kg, read-out: Cmax",43100 ng/mL
same,AUCin,[6],646.72 and 398.52 and 380.50 and 267.03 and 667.12 and 348.88
same,AUCt,[6],371.39 and 259.03 and 283.70 and 252.67 and 530.31 and 251.62
same,Tmax,[7],2.00 and 1.00
same,Cmax,[8],33.77 and 38.46 and 39.32 and 39.57 and 31.90
